From patent US20250032454A1, “KDM1A INHIBITORS FOR THE TREATMENT OF DISEASE” (Imago Biosciences, Inc., priority 2021, published 2025) come the findings set out here.

One test deals with LSD1 (Homo sapiens, UniProt O60341). The test is described as follows: LSD1 fluorescence coupling enzyme assay (HRP/Amplex Red, H3(1-21)K4me2 peptide), 10-dose IC50. The format is biochemical. The conditions noted are these: 10 μM histone H3(1-21)K4me2 peptide substrate, 3-fold serial dilution from 100 μM. Summed up: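 Fluorescence coupled assay: LSD1 demethylation of 10 μM H3(1-21)K4me2 peptide produces FAD-dependent H2O2, detected via HRP/Amplex Red as resorufin (Ex/Em 535/590 nm). IC50 from 10 doses, 3-fold serial dilution from 100 μM, in duplicate.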

A further test concerns MV4;11 cells. In words: Cell Titer-Glo cell growth inhibition in MV4;11 cell line (Day 5 / Day 10). The format is cell-based. Summed up:
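Cells seeded at 3750/well and treated with a 10-point, 4-fold dose curve from 0 to 50 µM; ATP-based luminescence viability read at Day 5. A portion is reseeded into fresh compound and media for 5 more days, read at Day 10; IC50 derived from luminescence.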

Where [1] appears, read: Homo sapiens, MV4-11, 120 h, Day 5, read-out: Cell Titer-Glo IC50 (5 d).
Where [2] appears, read: Homo sapiens, MV4-11, 240 h, Day 10, read-out: Cell Titer-Glo IC50 (10 d).

Where two headings read alike, the source gives them in different places.

What is called IC50 is the concentration at which inhibition is half-maximal. On to `N#Cc1ccc(-c2cc(NC[C@H]3CCC[C@H](N)C3)nn2-c2ccc(N3CCN(CCO)CC3)cc2)cc1F` [Example 46, 4-(3-((((1S,3S)-3-aminocyclohexyl)methyl)amino)-1-(4-(4-(2-hydroxyethyl)piperazin-1-yl)phenyl)-1H-pyrazol-5-yl)-2-fluorobenzonitrile], for which the IC50 against LSD1, in the test with MV4;11 cells (setting [1]) and with MV4;11 cells (setting [2]) was less than 500 nM throughout.
Take `Cn1cc2cc(-n3nc(NCC4CCCNC4)cc3-c3ccc(C#N)c(F)c3)ccc2n1` (stereo not drawn) [Example 9, 2-Fluoro-4-(1-(2-methyl-2H-indazol-5-yl)-3-((piperidin-3-ylmethyl)amino)-1H-pyrazol-5-yl)benzonitrile]: the IC50 against LSD1 and with MV4;11 cells (setting [1]) was less than 500 nM throughout.
`CC(C)n1ncc2cc(-n3nc(NC[C@@H]4CCC[C@@H](N)C4)cc3-c3ccc(C#N)c(F)c3)ccc21` [Example 73, 4-(3-((((1R,3R)-3-aminocyclohexyl)methyl)amino)-1-(1-isopropyl-1H-indazol-5-yl)-1H-pyrazol-5-yl)-2-fluorobenzonitrile]: the IC50 is less than 500 nM against LSD1, 500 to 1000 nM with MV4;11 cells (setting [1]) and less than 500 nM in the test on MV4;11 cells (setting [2]).
Take `N#Cc1ccc(-c2cc(NC[C@@H]3CCC[C@@H](N)C3)nn2-c2ccc3c(cnn3CCO)c2)cc1F` [Example 71, 4-(3-((((1R,3R)-3-aminocyclohexyl)methyl)amino)-1-(1-(2-hydroxyethyl)-1H-indazol-5-yl)-1H-pyrazol-5-yl)-2-fluorobenzonitrile]: the IC50 against LSD1, in the test with MV4;11 cells (setting [1]) and in the test with MV4;11 cells (setting [2]) was less than 500 nM each time.
For `N#Cc1ccc(-c2cc(NC[C@@H]3CCC[C@@H](N)C3)nn2-c2ccc(C(=O)N3CCCC3)cc2)cc1F` [Example 64, 4-(3-((((1R,3R)-3-aminocyclohexyl)methyl)amino)-1-(4-(pyrrolidine-1-carbonyl)phenyl)-1H-pyrazol-5-yl)-2-fluorobenzonitrile], the IC50 at LSD1 was 1000 to 10000 nM; in the test with MV4;11 cells (setting [1]), 1000 to 10000 nM; in the test with MV4;11 cells (setting [2]), less than 500 nM.
Take `N#Cc1ccc(-c2cc(NCC3CCCNCC3)nn2-c2ccc(N3CCN(CCO)CC3)cc2)cc1F` (stereo not drawn) [Example 27, 4-(3-((azepan-4-ylmethyl)amino)-1-(4-(4-(2-hydroxyethyl)piperazin-1-yl)phenyl)-1H-pyrazol-5-yl)-2-fluorobenzonitrile]: the IC50 on LSD1, in the test with MV4;11 cells (setting [1]) and in the test with MV4;11 cells (setting [2]) was less than 500 nM throughout.
As for `COc1ccc(-n2nc(NCC3CCCNC3)cc2-c2ccc(C#N)c(F)c2)cc1` (stereo not drawn) [Example 3, 2-fluoro-4-(1-(4-methoxyphenyl)-3-((piperidin-3-ylmethyl)amino)-1H-pyrazol-5-yl)benzonitrile], the IC50 against LSD1 and with MV4;11 cells (setting [1]) was less than 500 nM throughout.
For the compound `Cn1ncc2cc(-n3nc(NC[C@H]4CN5CCC4CC5)cc3-c3ccc(C#N)c(F)c3)ccc21` (single isomer, unassigned) [Example 31b], the IC50 is less than 500 nM at LSD1; 500 to 1000 nM in the test on MV4;11 cells (Homo sapiens, 120 h, Day 5, read-out: Cell Titer-Glo IC50 (5 d)); less than 500 nM with MV4;11 cells (Homo sapiens, 240 h, Day 10, read-out: Cell Titer-Glo IC50 (10 d)).
Turning to `Cn1ncc2cc(-n3nc(NC[C@@H]4CCC[C@H](N)C4)cc3-c3ccc(C#N)c(F)c3)ccc21` (single isomer, unassigned) [Example 7b], the IC50 at LSD1 was less than 500 nM; with MV4;11 cells (setting [1]) it was 500 to 1000 nM.
For the compound `Cn1cc(-c2ccc(-n3nc(NC[C@H]4CCC[C@H](N)C4)cc3-c3ccc(C#N)c(F)c3)cc2)cn1` [Example 54, 4-(3-((((1S,3S)-3-aminocyclohexyl)methyl)amino)-1-(4-(1-methyl-1H-pyrazol-4-yl)phenyl)-1H-pyrazol-5-yl)-2-fluorobenzonitrile], the half-inhibitory concentration (IC50) against LSD1, in the test with MV4;11 cells (setting [1]) and in the test with MV4;11 cells (setting [2]) was less than 500 nM throughout.
In the case of `Cn1cc(-c2cccc(-n3nc(NC[C@H]4CCC[C@H](N)C4)cc3-c3ccc(C#N)c(F)c3)c2)cn1` [Example 55, 4-(3-((((1S,3S)-3-aminocyclohexyl)methyl)amino)-1-(3-(1-methyl-1H-pyrazol-4-yl)phenyl)-1H-pyrazol-5-yl)-2-fluorobenzonitrile], the IC50 is less than 500 nM against LSD1, 500 to 1000 nM in the test on MV4;11 cells (setting [1]) and less than 500 nM in the test on MV4;11 cells (setting [2]).
As to `N#Cc1ccc(-c2cc(NC[C@H]3CCC[C@H](N)C3)nn2-c2cccc(-n3ccnn3)c2)cc1F` [Example 62, 4-(1-(3-(1H-1,2,3-triazol-1-yl)phenyl)-3-((((1S,3S)-3-aminocyclohexyl)methyl)amino)-1H-pyrazol-5-yl)-2-fluorobenzonitrile], the IC50 on LSD1 was 500 to 1000 nM; with MV4;11 cells (setting [1]) it was 1000 to 10000 nM; in the test with MV4;11 cells (setting [2]) it was less than 500 nM.
On the same counts, the results for `N#Cc1ccc(-c2cc(NC[C@H]3CCC[C@H](N)C3)nn2-c2ccc(N3CCS(=O)(=O)CC3)cc2)cc1F` [Example 50, 4-(3-((((1S,3S)-3-aminocyclohexyl)methyl)amino)-1-(4-(1,1-dioxidothiomorpholino)phenyl)-1H-pyrazol-5-yl)-2-fluorobenzonitrile] are less than 500 nM, less than 500 nM and less than 500 nM.
For `COc1ccc(-n2nc(NC[C@H]3CCC[C@@H](N)C3)cc2-c2ccc(C#N)c(F)c2)cc1` (single isomer, unassigned) [Example 5a], the IC50 against LSD1 is less than 500 nM; in the test on MV4;11 cells (setting [1]), 500 to 1000 nM.
Take `N#Cc1ccc(-c2cc(NC[C@@H]3CCC[C@@H](N)C3)nn2-c2ccc3c(cnn3-c3ccncc3)c2)cc1F` [Example 76, 4-(3-((((1R,3R)-3-aminocyclohexyl)methyl)amino)-1-(1-(pyridin-4-yl)-1H-indazol-5-yl)-1H-pyrazol-5-yl)-2-fluorobenzonitrile]: the figures for the IC50 on LSD1, in the test on MV4;11 cells (setting [1]) and in the test on MV4;11 cells (setting [2]) were less than 500 nM, 500 to 1000 nM and less than 500 nM, respectively.
`CS(=O)(=O)n1cc(-c2ccc(-n3nc(NC[C@H]4CCC[C@H](N)C4)cc3-c3ccc(C#N)c(F)c3)cc2)cn1` [Example 59, 4-(3-((((1S,3S)-3-aminocyclohexyl)methyl)amino)-1-(4-(1-(methylsulfonyl)-1H-pyrazol-4-yl)phenyl)-1H-pyrazol-5-yl)-2-fluorobenzonitrile]: the IC50 at LSD1 is less than 500 nM; in the test on MV4;11 cells (setting [1]) it was 1000 to 10000 nM; in the test with MV4;11 cells (setting [2]) it was less than 500 nM.
Take `COc1ccc(-n2nc(NC[C@@H]3CCC[C@@H](CN)C3)cc2-c2ccc(C#N)c(F)c2)cc1` [Example 78, 4-(3-((((1R,3R)-3-(aminomethyl)cyclohexyl)methyl)amino)-1-(4-methoxyphenyl)-1H-pyrazol-5-yl)-2-fluorobenzonitrile]: the IC50 is less than 500 nM at LSD1, 1000 to 10000 nM in the test with MV4;11 cells (setting [1]) and 1000 to 10000 nM in the test with MV4;11 cells (setting [2]).
Consider `N#Cc1ccc(-c2cc(NC[C@H]3CCC[C@H](N)C3)nn2-c2ccc(N3CCCC3)cc2)cc1F` [Example 19, 4-(3-((((1S,3S)-3-aminocyclohexyl)methyl)amino)-1-(4-(pyrrolidin-1-yl)phenyl)-1H-pyrazol-5-yl)-2-fluorobenzonitrile], for which the IC50 at LSD1, with MV4;11 cells (setting [1]) and in the test with MV4;11 cells (setting [2]) was less than 500 nM in each case.
As for `N#Cc1ccc(-c2cc(NC[C@H]3CCCNCC3)nn2-c2ccc(N3CCS(=O)(=O)CC3)cc2)cc1F` (single isomer, unassigned) [Example 26b], the IC50 at LSD1, in the test on MV4;11 cells (setting [1]) and in the test with MV4;11 cells (setting [2]) was less than 500 nM throughout.
For the compound `CN[C@@H]1CCC[C@@H](CNc2cc(-c3ccc(C#N)c(F)c3)n(-c3ccc(OC)cc3)n2)C1` (single isomer, unassigned) [Example 33b], the IC50 on LSD1 is less than 500 nM; in the test on MV4;11 cells (setting [1]), 1000 to 10000 nM.
Regarding `COc1ccc(-n2nc(NC[C@H]3C[C@H](N)C3)cc2-c2ccc(C#N)c(F)c2)cc1` [Example 42, 4-(3-((((1r,3r)-3-aminocyclobutyl)methyl)amino)-1-(4-methoxyphenyl)-1H-pyrazol-5-yl)-2-fluorobenzonitrile], the IC50 at LSD1 was 1000 to 10000 nM; in the test on MV4;11 cells (setting [1]), 1000 to 10000 nM; in the test on MV4;11 cells (setting [2]), less than 500 nM.
In the case of `N#Cc1ccc(-c2cc(NC[C@@H]3CCCNCC3)nn2-c2ccc(N3CCS(=O)(=O)CC3)cc2)cc1F` (single isomer, unassigned) [Example 26a], the IC50 against LSD1, with MV4;11 cells (setting [1]) and in the test on MV4;11 cells (setting [2]) was less than 500 nM each time.
For `N#Cc1ccc(-c2cc(NC[C@@H]3CCCNCC3)nn2-c2ccc(N3CCN(CCO)CC3)cc2)cc1F` (single isomer, unassigned) [Example 27a], the IC50 at LSD1 was less than 500 nM; in the test on MV4;11 cells (setting [1]), 500 to 1000 nM; in the test with MV4;11 cells (setting [2]) it was less than 500 nM.
As for `CN[C@H]1CCC[C@H](CNc2cc(-c3ccc(C#N)c(F)c3)n(-c3ccc(OC)cc3)n2)C1` (single isomer, unassigned) [Example 33a], the IC50 against LSD1 lay within 500 to 1000 nM; with MV4;11 cells (setting [1]), 1000 to 10000 nM.
Turning to `COc1ccc(-n2nc(NCC3CCCNCC3)cc2-c2ccc(C#N)c(F)c2)cc1` (single isomer, unassigned) [Example 22b, 4-(3-((azepan-4-ylmethyl)amino)-1-(4-methoxyphenyl)-1H-pyrazol-5-yl)-2-fluorobenzonitrile], the IC50 was less than 500 nM against LSD1; 500 to 1000 nM with MV4;11 cells (Day 5, read-out: Cell Titer-Glo IC50 (5 d)); less than 500 nM in the test with MV4;11 cells (Day 10, read-out: Cell Titer-Glo IC50 (10 d)).
Take `CN1CCN(c2ccc(-n3nc(NC[C@H]4CCC[C@H](N)C4)cc3-c3ccc(C#N)c(F)c3)cc2)CC1` [Example 44, 4-(3-((((1S,3S)-3-aminocyclohexyl)methyl)amino)-1-(4-(4-methylpiperazin-1-yl)phenyl)-1H-pyrazol-5-yl)-2-fluorobenzonitrile]: the IC50 against LSD1 is 500 to 1000 nM; in the test with MV4;11 cells (setting [1]), less than 500 nM; in the test with MV4;11 cells (setting [2]) it was less than 500 nM.
